Counter-ions that a name gives are not always drawn.
Key:
S1P1 [1] = target: T1, S1P1 (Homo sapiens (Human), UniProt P21453); test: Receptor binding assay, [33P]sphingosine 1-phosphate, membranes from CHO cells expressing S1P1; settings: CHO cell membranes, 25 pM [33P]sphingosine 1-phosphate
Description: Receptor binding assay: Membranes were prepared from CHO cells expressing S1P1 or S1P3 for use in ligand and […] binding studies. Cells were suspended in 50 mM TRIS, pH 7.4, 2 mM EDTA, 250 mM Sucrose (buffer A) and 1× Complete protease inhibitor cocktail (Roche), and disrupted at 4° C. by N2 decompression using a cell disruption bomb (Parr Instrument). Following centrifugation at 1000 RPM for 10 min at 4° C., the supernatant was suspended in buffer A and centrifuged again at 19000 RPM for 60 min at 4° C. The pellet was then suspended in 10 mM HEPES, pH 7.4, 1 mM EDTA, 250 mM Sucrose (Buffer B), and 1× Complete EDTA-free protease inhibitor cocktail and homogenized using a potter. Membranes were flash frozen in liquid N2 and stored at −80° C. [33P]sphingosine 1-phosphate (3000 Ci/mmol; American Radiolabeled Chemicals, Inc.) was added to test compounds in DMSO. Membranes and WGA SPA beads (GE Healthcare) were added to give a final volume of 100 μl in 96-well plates with assay concentrations of 25 pM or 10 pM [33P]sphingosine 1-phosphate (respectively for S1P1 or S1P3), 50 mM HEPES, pH 7.5, 5 mM MgCl2, 100 mM NaCl, 0.4% fatty acid-free BSA, 1-5 μg/well of proteins and 100 μg/well of WGA SPA beads. Binding was performed for 60 min at RT on a shaker and bound radioactivity was measured on a PerkinElmer 1450 MicroBeta counter. Specific binding was calculated by subtracting remaining radioactivity in the presence of 1000-fold excess of unlabeled SIP. Binding data were analyzed using the GraphPad Prism program.

S1P1 [2] = target: T1, S1P1; test: 35S-GTPγS binding, membranes from CHO cells expressing S1P1; assay type: biochemical; settings: CHO cell membranes
Description: Cells were suspended in 50 mM TRIS, pH 7.4, 2 mM EDTA, 250 mM Sucrose (buffer A) and 1× Complete protease inhibitor cocktail (Roche), and disrupted at 4° C. by N2 decompression using a cell disruption bomb (Parr Instrument). Following centrifugation at 1000 RPM for 10 min at 4° C., the supernatant was suspended in buffer A and centrifuged again at 19000 RPM for 60 min at 4° C. The pellet was then suspended in 10 mM HEPES, pH 7.4, 1 mM EDTA, 250 mM Sucrose (Buffer B), and 1× Complete EDTA-free protease inhibitor cocktail and homogenized using a potter. Membranes were flash frozen in liquid N2 and stored at −80° C. [33P]sphingosine 1-phosphate (3000 Ci/mmol; American Radiolabeled Chemicals, Inc.) was added to test compounds in DMSO. […] Specific binding was calculated by subtracting remaining radioactivity in the presence of 1000-fold excess of unlabeled SIP. Binding data were analyzed using the GraphPad Prism program.
After 60 min incubation at 30° C. on a shaker, plates were centrifuged for 10 min at 2000 RPM. […] Triplicate samples were averaged and expressed as % response relative to S1P activation in absence of compound (n=2).

T1 sequence (P21453 whole entry, species assumed): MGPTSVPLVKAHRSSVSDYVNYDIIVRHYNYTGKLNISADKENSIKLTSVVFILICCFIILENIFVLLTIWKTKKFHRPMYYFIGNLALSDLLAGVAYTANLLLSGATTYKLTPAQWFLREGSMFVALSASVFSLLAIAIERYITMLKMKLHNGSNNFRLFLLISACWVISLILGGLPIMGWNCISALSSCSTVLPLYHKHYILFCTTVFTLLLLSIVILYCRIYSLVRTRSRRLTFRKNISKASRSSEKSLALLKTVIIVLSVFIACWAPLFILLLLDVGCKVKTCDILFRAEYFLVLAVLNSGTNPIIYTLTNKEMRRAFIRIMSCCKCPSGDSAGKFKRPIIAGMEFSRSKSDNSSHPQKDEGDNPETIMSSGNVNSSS

SMILES | Ki (S1P1 [1]) [nM] | EC50 (S1P1 [2]) [nM]
COCc1c(-c2nc(-c3ccc(/C=C/C(=O)O)cc3)no2)cnn1C1CCCCC1 [Example 98, (E)-3-(4-(5-(1-cyclohexyl-5-(methoxymethyl)-1H-pyrazol-4-yl)-1,2,4-oxadiazol-3-yl)phenyl)acrylic acid] | 409 | 
Fc1ccc(F)c(-c2noc(-c3cnn(CCc4ccccc4)c3-c3ccncc3)n2)c1 [Example 99, 3-(2,5-difluorophenyl)-5-(1-phenethyl-5-(pyridin-4-yl)-1H-pyrazol-4-yl)-1,2,4-oxadiazole] |  | 496
CC(C)(C)Cn1ncc(-c2nc(-c3ccc(CO)cc3)no2)c1-c1ccncc1 [Example 100, (4-(5-(1-neopentyl-5-(pyridin-4-yl)-1H-pyrazol-4-yl)-1,2,4-oxadiazol-3-yl)phenyl)methanol] |  | 377
COCCc1c(-c2nc(-c3cc(F)ccc3F)no2)cnn1C1CCCCC1 [Example 103, 5-(1-cyclohexyl-5-(2-methoxyethyl)-1H-pyrazol-4-yl)-3-(2,5-difluorophenyl)-1,2,4-oxadiazole] |  | 35
CNCc1ccc(-c2noc(-c3cnn(CC(C)(C)C)c3-c3ccncc3)n2)cc1 [Example 104, N-methyl-1-(4-(5-(1-neopentyl-5-(pyridin-4-yl)-1H-pyrazol-4-yl)-1,2,4-oxadiazol-3-yl)phenyl)methanamine] |  | 314
CNCc1ccc(-c2noc(-c3cnn(CCc4ccccc4)c3-c3ccncc3)n2)cc1 [Example 106, N-methyl-1-(4-(5-(1-phenethyl-5-(pyridin-4-yl)-1H-pyrazol-4-yl)-1,2,4-oxadiazol-3-yl)phenyl)methanamine] |  | 458
COCc1c(-c2nc(-c3ccc(Cn4cncn4)cc3)no2)cnn1C1CCCCC1 [Example 107, 3-(4-((1H-1,2,4-triazol-1-yl)methyl)phenyl)-5-(1-cyclohexyl-5-(methoxymethyl)-1H-pyrazol-4-yl)-1,2,4-oxadiazole] |  | 45
COCCc1c(-c2nc(-c3cccc(C(F)(F)F)c3)no2)cnn1C1CCCCC1 [Example 108, 5-(1-cyclohexyl-5-(2-methoxyethyl)-1H-pyrazol-4-yl)-3-(3-(trifluoromethyl)phenyl)-1,2,4-oxadiazole] |  | 102
COCc1c(-c2nc(-c3ccc(CCO)cc3)no2)cnn1C1CCCCC1 [Example 109, 2-(4-(5-(1-cyclohexyl-5-(methoxymethyl)-1H-pyrazol-4-yl)-1,2,4-oxadiazol-3-yl)phenyl)ethanol] |  | 312
O=C(O)C1CN(Cc2ccc(-c3noc(-c4cnn(CCc5ccccc5)c4-c4ccncc4)n3)cc2)C1 [Example 110, 1-(4-(5-(1-phenethyl-5-(pyridin-4-yl)-1H-pyrazol-4-yl)-1,2,4-oxadiazol-3-yl)benzyl)azetidine-3-carboxylic acid, formate] |  | 40
COCCc1c(-c2nc(-c3ccc(Cn4cncn4)cc3)no2)cnn1C1CCCCC1 [Example 111, 3-(4-((1H-1,2,4-triazol-1-yl)methyl)phenyl)-5-(1-cyclohexyl-5-(2-methoxyethyl)-1H-pyrazol-4-yl)-1,2,4-oxadiazole] |  | 29
CCOc1c(-c2nc(-c3cc(F)ccc3F)no2)cnn1-c1ccccc1C [Example 112, 3-(2,5-difluorophenyl)-5-(5-ethoxy-1-o-tolyl-1H-pyrazol-4-yl)-1,2,4-oxadiazole] |  | 94
FC(F)(F)c1cccc(-c2noc(-c3cnn(CC4CC4)c3-c3ccncc3)n2)c1 [Example 113, 5-(1-(cyclopropylmethyl)-5-(pyridin-4-yl)-1H-pyrazol-4-yl)-3-(3-(trifluoromethyl)phenyl)-1,2,4-oxadiazole] |  | 24

Other lines, results leading:

Ki (S1P1 [1]) [nM] | EC50 (S1P1 [2]) [nM] | SMILES
 | 94 | COCc1c(-c2nc(-c3ccc(Cn4cccn4)cc3)no2)cnn1C1CCCCC1 [Example 114, 3-(4-((1H-pyrazol-1-yl)methyl)phenyl)-5-(1-cyclohexyl-5-(methoxymethyl)-1H-pyrazol-4-yl)-1,2,4-oxadiazole]
 | 134 | COCCc1c(-c2nc(-c3ccc(CO)cc3)no2)cnn1C1CCCCC1 [Example 115, (4-(5-(1-cyclohexyl-5-(2-methoxyethyl)-1H-pyrazol-4-yl)-1,2,4-oxadiazol-3-yl)phenyl)methanol]
 | 86 | COCc1c(-c2nc(-c3ccc4c(c3)CCNC4)no2)cnn1C1CCCCC1 [Example 116, 5-(1-cyclohexyl-5-(methoxymethyl)-1H-pyrazol-4-yl)-3-(1,2,3,4-tetrahydroisoquinolin-6-yl)-1,2,4-oxadiazole]
 | 398 | COCc1c(-c2nc(-c3ccc4c(c3)CN(CCC(=O)O)CC4)no2)cnn1C1CCCCC1 [Example 118, 3-(7-(5-(1-cyclohexyl-5-(methoxymethyl)-1H-pyrazol-4-yl)-1,2,4-oxadiazol-3-yl)-3,4-dihydroisoquinolin-2(1H)-yl)propanoic acid]
 | 66 | COCc1c(-c2nc(-c3ccc(Cn4ccnc4)cc3)no2)cnn1C1CCCCC1 [Example 119, 3-(4-((1H-imidazol-1-yl)methyl)phenyl)-5-(1-cyclohexyl-5-(methoxymethyl)-1H-pyrazol-4-yl)-1,2,4-oxadiazole]
 | 40 | COCc1c(-c2nc(-c3ccc(CNC(C)C)cc3)no2)cnn1C1CCCCC1 [Example 121, N-(4-(5-(1-cyclohexyl-5-(methoxymethyl)-1H-pyrazol-4-yl)-1,2,4-oxadiazol-3-yl)benzyl)propan-2-amine]
 | 157 | COCc1c(-c2nc(-c3ccc(CNCC(O)CO)cc3)no2)cnn1C1CCCCC1 (centres unmarked) [Example 122, 3-(4-(5-(1-cyclohexyl-5-(methoxymethyl)-1H-pyrazol-4-yl)-1,2,4-oxadiazol-3-yl)benzylamino)propane-1,2-diol]
 | 82 | COCc1c(-c2nc(-c3ccc(O)cc3)no2)cnn1C1CCCCC1 [Example 123, 4-(5-(1-cyclohexyl-5-(methoxymethyl)-1H-pyrazol-4-yl)-1,2,4-oxadiazol-3-yl)phenol]
 | 382 | COCc1c(-c2nc(-c3ccc(N)nc3)no2)cnn1C1CCCCC1 [Example 124, 5-(5-(1-cyclohexyl-5-(methoxymethyl)-1H-pyrazol-4-yl)-1,2,4-oxadiazol-3-yl)pyridin-2-amine]
 | 168 | COCc1c(-c2nc(-c3cccc(O)c3)no2)cnn1C1CCCCC1 [Example 126, 3-(5-(1-cyclohexyl-5-(methoxymethyl)-1H-pyrazol-4-yl)-1,2,4-oxadiazol-3-yl)phenol]
 | 172 | COCc1c(-c2nc(-c3ccc(CCN(C)C)cc3)no2)cnn1C1CCCCC1 [Example 127, 2-(4-(5-(1-cyclohexyl-5-(methoxymethyl)-1H-pyrazol-4-yl)-1,2,4-oxadiazol-3-yl)phenyl)-N,N-dimethylethanamine]
 | 158 | COCc1c(-c2nc(-c3ccc(CCNC(C)C)cc3)no2)cnn1C1CCCCC1 [Example 128, N-(4-(5-(1-cyclohexyl-5-(methoxymethyl)-1H-pyrazol-4-yl)-1,2,4-oxadiazol-3-yl)phenethyl)propan-2-amine formate]
 | 438 | COCc1c(-c2nc(-c3ccc(CCN4CCC(C(=O)OC)CC4)cc3)no2)cnn1C1CCCCC1 [Example 129, Methyl 1-(4-(5-(1-cyclohexyl-5-(methoxymethyl)-1H-pyrazol-4-yl)-1,2,4-oxadiazol-3-yl)phenethyl)piperidine-4-carboxylate]
 | 36 | COCc1c(-c2nc(-c3ccc(CCN4CCC(C(=O)O)CC4)cc3)no2)cnn1C1CCCCC1 [Example 130, 1-(4-(5-(1-cyclohexyl-5-(methoxymethyl)-1H-pyrazol-4-yl)-1,2,4-oxadiazol-3-yl)phenethyl)piperidine-4-carboxylic acid]
 | 181 | COCc1c(-c2nc(-c3ccc(OC4CCNC4)cc3)no2)cnn1C1CCCCC1 (centres unmarked) [Example 131, 5-(1-cyclohexyl-5-(methoxymethyl)-1H-pyrazol-4-yl)-3-(4-(pyrrolidin-3-yloxy)phenyl)-1,2,4-oxadiazole]
 | 18 | O=C(O)C1CCN(Cc2ccc(-c3noc(-c4cnn(C5CCCCC5)c4C4CCOCC4)n3)cc2)CC1 [Example 132, 1-(4-(5-(1-cyclohexyl-5-(tetrahydro-2H-pyran-4-yl)-1H-pyrazol-4-yl)-1,2,4-oxadiazol-3-yl)benzyl)piperidine-4-carboxylic acid]

Reference: patent publication US8802663B2, “Pyrazole oxadiazole derivatives as S1P1 agonists” (Merck Serono SA, priority 2009, dated 2014)
